Among the test systems are CCRF-CEM leukemia; HCT-15 colon; NCI-H460 lung; NCI/ADR-RES ovarian; SK-MEL-28 melanoma; SK-OV-3 ovarian; DLD-1 colon; DMS 114 small cell lung; DMS 273 small cell lung; KM20L2 colon; M19-MEL melanoma; SNB-78 CNS; XF 498 CNS.
Assay in all cases: NCI tumour cell line growth inhibition, 48 h

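Protocol summary: plate cells (96-well), add compound at 5 concentrations, incubate 48 h, interpolate endpoints linearly. GI50 marks 50% less growth. Definition used: TGI = concentration required for complete inhibition of growth.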 Some results are limits rather than exact numbers.

`CN(NC(=O)c1cccs1)C1=NCCCN1`: the TGI with CCRF-CEM leukemia, in the experiment with HCT-15 colon, with NCI-H460 lung, in the experiment with NCI/ADR-RES ovarian, with SK-MEL-28 melanoma and in the experiment on SK-OV-3 ovarian was > 100 µM each time.
Regarding `Nc1ccc(N=Nc2ccccc2)cc1`, the TGI with CCRF-CEM leukemia, in the experiment with HCT-15 colon, in the experiment with NCI-H460 lung, with NCI/ADR-RES ovarian, in the experiment on SK-MEL-28 melanoma and with SK-OV-3 ovarian was > 100 µM each time.
With `C[C@]12CCc3nc(Nc4ccccc4)sc3C1=CC[C@@H]1[C@@H]2CC[C@]2(C)/C(=N/NC(N)=S)CC[C@@H]12`, the GI50 in the experiment with CCRF-CEM leukemia was 1.98 µM; with HCT-15 colon, 1.64 µM; in the experiment with NCI-H460 lung, 6.14 µM; with NCI/ADR-RES ovarian it was 4.01 µM; in the experiment with SK-MEL-28 melanoma, 4.49 µM; in the experiment on SK-OV-3 ovarian, 82.7 µM. The TGI was > 100 µM in the experiment with CCRF-CEM leukemia; 6.25 µM with HCT-15 colon; > 100 µM with NCI-H460 lung; > 100 µM in the experiment on NCI/ADR-RES ovarian; > 100 µM with SK-MEL-28 melanoma; > 100 µM in the experiment on SK-OV-3 ovarian.
Turning to `O=C(NC(Cc1ccc(I)cc1)C(=O)O)c1ccc(Br)cc1` (stereo unspecified), the TGI in the experiment with CCRF-CEM leukemia, with DLD-1 colon, in the experiment on DMS 114 small cell lung, in the experiment on DMS 273 small cell lung, with HCT-15 colon and in the experiment with KM20L2 colon was > 100 µM each time. Also, the TGI with M19-MEL melanoma, in the experiment with NCI-H460 lung, with NCI/ADR-RES ovarian, with SK-MEL-28 melanoma, with SK-OV-3 ovarian and in the experiment on SNB-78 CNS was > 100 µM in each case. The TGI with XF 498 CNS is > 100 µM.
As to `CCOC(=O)/C=C(/C(=O)OCC)n1ccc(N)nc1=O`, the TGI is 76 µM in the experiment with CCRF-CEM leukemia; > 100 µM with HCT-15 colon; > 100 µM in the experiment on NCI-H460 lung; > 100 µM with NCI/ADR-RES ovarian; > 100 µM in the experiment on SK-MEL-28 melanoma; > 100 µM in the experiment on SK-OV-3 ovarian.
Regarding `O=c1c2ncn(COCCCl)c2n(-c2ccccc2)c(=S)n1-c1ccccc1`, the TGI in the experiment on CCRF-CEM leukemia, in the experiment on HCT-15 colon, in the experiment with NCI-H460 lung, in the experiment with NCI/ADR-RES ovarian, in the experiment on SK-MEL-28 melanoma and in the experiment on SK-OV-3 ovarian was > 100 µM in each case.
In the case of `COc1ccc(/C=N/N=C(\N)NO)c(O)c1`, the TGI with CCRF-CEM leukemia, in the experiment on HCT-15 colon, in the experiment with NCI-H460 lung, in the experiment on NCI/ADR-RES ovarian, in the experiment on SK-MEL-28 melanoma and with SK-OV-3 ovarian was > 10 µM in each case.
As to `CNC(=O)Oc1ccc(-c2cn3cc(OC(=O)NC)ccc3n2)cc1`, the TGI was 52.9 µM in the experiment with CCRF-CEM leukemia; > 100 µM in the experiment on HCT-15 colon; > 100 µM in the experiment with NCI-H460 lung; > 100 µM in the experiment on NCI/ADR-RES ovarian; > 100 µM in the experiment with SK-MEL-28 melanoma; > 100 µM in the experiment with SK-OV-3 ovarian.
Regarding `C=CCCC(=O)CC(O)(C(F)(F)F)C(F)(F)F`, the TGI in the experiment with CCRF-CEM leukemia, in the experiment with HCT-15 colon, in the experiment on NCI-H460 lung, in the experiment with NCI/ADR-RES ovarian, in the experiment on SK-MEL-28 melanoma and in the experiment with SK-OV-3 ovarian was > 100 µM in each case.
As to `N#Cc1c(-c2ccccc2)nc(-c2ccccc2)sc1=S`, the TGI with CCRF-CEM leukemia, with HCT-15 colon, in the experiment with NCI-H460 lung, in the experiment on NCI/ADR-RES ovarian, with SK-MEL-28 melanoma and in the experiment on SK-OV-3 ovarian was > 100 µM throughout.
`CC(=O)O[C@H]1CC[C@@]2(C)C(=CC[C@H]3[C@@H]4C[C@H](N5CCCC5)[C@H](OC(C)=O)[C@@]4(C)CC[C@@H]32)C1`: the TGI with CCRF-CEM leukemia, in the experiment on HCT-15 colon, in the experiment with NCI-H460 lung, in the experiment with NCI/ADR-RES ovarian, with SK-MEL-28 melanoma and with SK-OV-3 ovarian was > 100 µM in each case.
On to `Cc1ccc(-c2cc(N)n(-c3nc4c(c(=O)n(C)c(=O)n4C)n3C)n2)cc1`, for which the TGI in the experiment with CCRF-CEM leukemia, with HCT-15 colon, in the experiment with NCI-H460 lung, in the experiment with NCI/ADR-RES ovarian, with SK-MEL-28 melanoma and in the experiment on SK-OV-3 ovarian was > 100 µM throughout.
As to `NCCN=C(Nc1ccccc1)Nc1ccccc1`, the TGI in the experiment on CCRF-CEM leukemia, in the experiment on HCT-15 colon, with NCI-H460 lung, in the experiment with NCI/ADR-RES ovarian, with SK-MEL-28 melanoma and with SK-OV-3 ovarian was > 100 µM in each case.
On to `O=C(O)c1ccc(S(=O)(=O)c2ccccc2[N+](=O)[O-])cc1`, for which the TGI in the experiment on CCRF-CEM leukemia, in the experiment with HCT-15 colon, in the experiment with NCI-H460 lung, with NCI/ADR-RES ovarian, with SK-MEL-28 melanoma and with SK-OV-3 ovarian was > 10 µM throughout.
`COc1cc(C2SCC(=O)N2c2ccc(-c3ccc(-n4c(-c5ccccc5)nc5ccccc5c4=O)cc3)cc2)cc(OC)c1OC` (stereo unspecified): the TGI in the experiment with CCRF-CEM leukemia, in the experiment on HCT-15 colon, with NCI-H460 lung, with NCI/ADR-RES ovarian, with SK-MEL-28 melanoma and in the experiment with SK-OV-3 ovarian was > 100 µM throughout.
On to `COc1ccc(Nc2nc(NS(=O)(=O)c3cc(C)c(Cl)cc3S)n[nH]2)cc1`, for which the TGI in the experiment with CCRF-CEM leukemia, in the experiment on HCT-15 colon, with NCI-H460 lung, in the experiment on NCI/ADR-RES ovarian, in the experiment on SK-MEL-28 melanoma and in the experiment on SK-OV-3 ovarian was > 100 µM in each case.
`CN(O)C(=O)c1cccc(Cl)c1`: the TGI with CCRF-CEM leukemia, in the experiment with HCT-15 colon, with NCI-H460 lung, with NCI/ADR-RES ovarian, in the experiment on SK-MEL-28 melanoma and in the experiment on SK-OV-3 ovarian was > 100 µM throughout.
For the compound `COC(=O)C1=CC(=O)OC1(OO)c1ccccc1` (stereo unspecified), the TGI was 51.1 µM in the experiment on CCRF-CEM leukemia; > 100 µM with HCT-15 colon; > 100 µM in the experiment on NCI-H460 lung; > 100 µM in the experiment with NCI/ADR-RES ovarian; > 100 µM in the experiment with SK-MEL-28 melanoma; > 100 µM in the experiment with SK-OV-3 ovarian.

The record behind these values is PubChem BioAssay (NCI).
